Experimental data: patent US3971814A, “Benzo(b)thiophene derivatives” (priority 1972, dated 1976)
“Also recorded” adds a separate entry of the source.

Tests used:
in vivo [1] = conditions: mouse, po
male mice (NMRI) [2] = experiment: Hot-plate test (analgesia); type: in vivo; conditions: mouse
Method: male mice (NMRI) weighing 18 to 28 g are used as test animals. The animals are placed on a copper plate constantly kept at 55°C, and the time is measured until they lick their forepaws.
Following 3 initial measurements, the test substances are administered intragastrically. Afterwards the measurements are repeated over a period of 2 hours at intervals of 30 minutes. Each dose is administered to 10 animals selected from groups of 15 animals following the initial measurements.
The test substances are administered as a suspension in 1% Tragacanth mucilage, the volume of liquid amounting to 2 ml/100 g of body weight.
For the purpose of statistical evaluation according to Litchfield and Wilcoxon, those animals in which the reaction time has been extended by at least 100% are considered protected.

[3] = system: Arthritis Induced by the Freund Adjuvant; experiment: Adjuvant arthritis; type: in vivo; conditions: rat, i.g.
Method: test animals used are the same as described under Example E; food and water is given ad libitum.
On the first day of the test a 0.8% suspension of Mycobacterium butyrium in paraffin (0.05 or 0.1 ml/paw) is injected subplantarly into the left hind paw of the animals. […] From the 19th to the 22nd day the animals showing a reaction are treated intragastrically with the test substances. The right paw having been marked above the ankle-joint, the volume is determined daily from the 19th to the 22nd or 23rd day, according to the process described under Example B.
The volume of liquid, as well as of the carrier administered, corresponded to that described in the above tests.

Granuloma Pouch = experiment: Granuloma pouch test; type: in vivo; conditions: rat, i.g.
Method: Under light ether anesthesia 25 ml of air are injected under the shaved skin of the back. 0.5 ml of croton oil/animal (0.05%) are injected into the pouch formed by the air, and evenly distributed over the back by turning the animal.
On the third day croton oil (3%, 0.5 ml/animal) is again injected into this pouch.
The average dry weights of the granuloma pouches and the quantities of secretion of the groups subjected to treatment are then compared with those of the control group and the percental deviations calculated.
At the end of some tests the suprarenal glands are removed and the weight of these organs is also determined.
The weight of the animals is measured daily and the changes determined as a percentage.

[4] = system: Yeast Edema of the Rat Paw; experiment: Yeast edema and determination of pain threshold in the rat paw; type: in vivo; conditions: 3 h; for Pain Threshold (change vs initial value) / Volume (increase in paw volume, blank control = 100%): i.g.
Method: test animals are male rats (SIV 50) weighing 100 to 180 g. […] 10 animals belonged to each dosage group.
The volume of the paw is determined according to the method described by Enders and Heidbrink, the pain threshold according to that described by Randall and Selitto (Arch. Int. Pharmacodyn CXI: 409, 1957).
Following initial measurements, […] of a 5% suspension of dried yeast is injected subplantarly into the right paw and the test substances are administered immediately. The blank control group is given Tragacanth mucilage only. After 3 hours the pain threshold and the volume of the paw are determined again.
The mean value of the increase in paw volume of the animals of the blank control after 3 hours is rated 100%, and the mean value of the increase in paw volume of the animals of the substance groups expressed as a percentage thereof. Pain threshold after 3 hours reflects the increase or decrease in percent, compared to the initial value.
In order to be able to calculate the ED50 according to the method by Lichtfield and Wilcoxon (J.P.E.T. 96:99, 1949), those animals in a dose group are considered protected when the paw swelling was at least 40% less than that of the blank control.

[5] = system: Carrageenin Edema of the Rat Paw; experiment: Carrageenin edema of the rat paw; type: in vivo
Method: test animals used are the same as stated under Example B and up to the initial measurement, the procedure corresponded to that described under this example.
After an initial measurement, the test substances are administered and after 60 minutes a 1% Carrageenin suspension is injected subplantarly (0.1 ml/paw). After 60 and 180 minutes the paw volume is again determined. Here, too, the blank control group was treated with the carrier alone.
The increase in the volume of the paw after 60 minutes is considered as the first phase of the biphase edema and that after 180 minutes, as compared to the 60-minute-value, as the second phase. Moreover, the total increase of the paw edema within 180 minutes, as compared to the initial value, is also determined.
Determination of the influence exerted by the substances upon the development of the paw edema and calculation of the ED50 are done as under Example B.

[6] = Summary: calculated ED50 and therapeutic ratio; type: in vivo, rat; conditions: for ED50: Rattus norvegicus; for therapeutic ratio: from ED50 and LD50 (A)
Method: From the ED50 and LD50 (A) the following therapeutic ratios for this test are calculated: […]

in vivo [7] = conditions: rat, po
Method: experimental animals are male mice (NMRI) weighing 16 to 24 g and male rats (SIV 50) weighing 120 to 180 g.
Prior to the beginning of the test, all animals are kept fasting for 16 to 18 hours, however water is offered ad libitum. 6 mice and 4 or 6 rats belonged to each dosage group and the doses between each group are increased logarithmically. The volume of liquid administered during testing amounted to 2 ml/100 g body weight. The substances tested are suspended in 1 percent Tragacanth mucilage and administered intragastrically via a gastric tube.

[8] = system: Kaolin Edema of the Rat Paw; experiment: Kaolin edema of the rat paw; type: in vivo
Method: test animals used are the same as stated under Example B and up to the beginning of the test, the procedure corresponded to that described under this example.
After an initial measurement, a sterile 25% kaolin suspension was injected (0.05 ml/paw) subplantarly. The test substances are administered immediately, and after 60, 120, and 180 minutes the paw volume is again determined.
Evaluation of the tests was performed as stated under Example C, and the results so obtained presented below: […]

Granulation Tissue = experiment: Cotton-pellet test (granulation tissue); type: in vivo; conditions: rat; for Granulation Tissue % (Dry Weight) / Increase in Body Weight: i.g.; for granulation tissue % dry weight: ig., 2×1,5 mg/kg daily, section K
Method: test animals are male rats (SIV 50) weighing 110 to 200 g. All test animals are kept fasting for 16 to 18 hours prior to the implantation of the pellets; after that food and water were available ad libitum. Each dose level of the chemical tested was administered to 12 animals. The substances were suspended in 1% Tragacanth mucilage and administered intragastrically by means of a stomach tube. The substances to be investigated and the control suspensions are administered once on the operating day following operation, and twice a day on the following 6 days (at intervals of 6 to 8 hours). The type of application and volume of liquid corresponded to that under B.
Under light ether anesthesia 4 sterile cotton pellets were implanted under the skin on the back of the animal. The weight of one pellet was 50 mg ± 0.5 mg. After 7 days treatment, the animals were sacrificed, the pellets removed with the granulation tissue, weighed and then dried in the incubator at +80°C to constant weight. The average dry weight of the granulation tissue of the control group was rated 100%, and deviations of the mean weights of the group treated with the test substance determined as a percentage thereof.
The weight of the animals is measured daily throughout the tests, and the percental increase determined. At the end of some tests, moreover, the suprarenal glands are removed and their weight determined.

[9] = Overall summary of pharmacological results in words; type: in vivo
male mice (NMRI) [10] = conditions: mouse, in vivo
[11] = system: increased body temperature of the rat; experiment: Antipyresis (yeast-induced fever); type: in vivo; conditions: i.g.
Method: test animals are male rats (SIV 50) weighing 100 to 180 g. 16 hours prior to the beginning of the test a 12% suspension of dried yeast (1 or 2 ml/100 g of body weight) is injected subcutaneously. When the maximum of the increase in body temperature is reached, following 3 to 4 initial measurements, the test substances are applied intragastrically and the development of the body temperature is observed for a period of 7 hours.
The test substances administered are suspended in Tragacanth mucilage; the volume of liquid administered amounting to 2 ml/100 g of body weight. In this test 2 control groups are used, one given sodium chloride subcutaneously (normal temperature group) and to the other group a yeast suspension is administered subcutaneously but, instead of the test substances, Tragacanth mucilage is administered intragastrically (fever control group).

COc1ccc2c(c1)c(CC(=O)O)c(C)n2C(=O)c1ccc(Cl)cc1 [Indomethacin, 1-(p-Chlorobenzoyl)-5-methoxy-2-methylindole-3-acetic acid]
LD50 (in vivo [1]): < 10 mg/kg | Notes (analgesic activity) (male mice (NMRI) [2]; i.g.): slightly effective | protection (male mice (NMRI) [2]; i.g., starting with 20 mg/kg): approx. 50% | Swelling ([3]; 2 × 2.5 mg/kg): 80% | Exitus (footnote) (Granuloma Pouch; 2 × 1.5 mg/kg daily): Exitus of an animal | Granuloma Pouch Dry Weight (Granuloma Pouch; 2 × 1.5 mg/kg daily): 98% | Increase in Body Weight (Granuloma Pouch; 2 × 1.5 mg/kg daily): not influenced | Secretion (Granuloma Pouch; 2 × 1.5 mg/kg daily): 134% | Pain Threshold (change vs initial value) ([4]; 5.0 mg/kg): -22% | Volume (increase in paw volume, blank control = 100%) ([4]; 5.0 mg/kg): 131% | Pain Threshold (change vs initial value) ([4]; 20.0 mg/kg): +11% | Volume (increase in paw volume, blank control = 100%) ([4]; 20.0 mg/kg): 108% | change in vivo at 5 mg/kg ([4]; po, ig., 5 mg/kg, section K): -22% | response vs control in vivo at 5 mg/kg ([4]; po, ig., 5 mg/kg, section K, read-out: volume (paw, control = 100%)): 100% | 1st Phase (paw edema) ([5]; 1.0 mg/kg): 65% | 2nd Phase (paw edema) ([5]; 1.0 mg/kg): 80% | 3 Hrs. (total paw edema) ([5]; 1.0 mg/kg): 73% | 1st Phase (paw edema) ([5]; 5.0 mg/kg): 80% | 2nd Phase (paw edema) ([5]; 5.0 mg/kg): 73% | 3 Hrs. (total paw edema) ([5]; 5.0 mg/kg): 73% | ED50 [6]: 0.9 mg/kg | therapeutic ratio [6]: 33.3 | LD50 (in vivo [7]): 20 to 30 mg/kg | 60 Minutes (paw edema) ([8]; 2.5 mg/kg): 79% | 120 Minutes (paw edema) ([8]; 2.5 mg/kg): 81% | 180 Minutes (paw edema) ([8]; 2.5 mg/kg): 81% | Granulation Tissue % (Dry Weight) (Granulation Tissue; 2 × 1.5 mg/kg daily): 80% | Increase in Body Weight (Granulation Tissue; 2 × 1.5 mg/kg daily): not influenced | granulation tissue % dry weight (Granulation Tissue; NaCl control group): 91% | granulation tissue % dry weight (Granulation Tissue; tragacanth control group): 65%

CCOC(=N)c1sc2ccccc2c1O [Example 2, Ethyl 3-Hydroxy-Benzo[b]Thiophene-2-Carboximidate]
anti-inflammatory effect ([9]; all test models): proved in all test models; also recorded: of the same order as that of the most potent commercially available anti-inflammatory preparations | analgesic activity ([9]; compared to customary anti-inflammatory preparations): particularly marked | anti-inflammatory effect ([9]; doses as low as 50 mg/kg): clear anti-inflammatory effect | toxicity levels vs standard substances ([9]; in vivo): very favorable | analgesic activity (male mice (NMRI) [2]; as shown in (H)): sufficient analgesic activity | Swelling ([3]; 2 × 125.0 mg/kg): 81% | Granuloma Pouch Dry Weight (Granuloma Pouch; 2 × 125 mg/kg daily): 70% | Increase in Body Weight (Granuloma Pouch; 2 × 125 mg/kg daily): not influenced | Secretion (Granuloma Pouch; 2 × 125 mg/kg daily): 59% | LD50 (male mice (NMRI) [10]): 3.890 mg/kg | Pain Threshold (change vs initial value) ([4]; 31.2 mg/kg): +10% | Volume (increase in paw volume, blank control = 100%) ([4]; 31.2 mg/kg): 77% | Pain Threshold (change vs initial value) ([4]; 62.5 mg/kg): +46% | Volume (increase in paw volume, blank control = 100%) ([4]; 62.5 mg/kg): 50% | Volume (increase in paw volume, blank control = 100%) ([4]; 125.0 mg/kg): 35% | 1st Phase (paw edema) ([5]; 62.5 mg/kg): 65% | 2nd Phase (paw edema) ([5]; 62.5 mg/kg): 73% | 3 Hrs. (total paw edema) ([5]; 62.5 mg/kg): 62% | 1st Phase (paw edema) ([5]; 125.0 mg/kg): 65% | 2nd Phase (paw edema) ([5]; 125.0 mg/kg): 27% | 3 Hrs. (total paw edema) ([5]; 125.0 mg/kg): 42% | 1st Phase (paw edema) ([5]; 250.0 mg/kg): 29% | 2nd Phase (paw edema) ([5]; 250.0 mg/kg): 20% | 3 Hrs. (total paw edema) ([5]; 250.0 mg/kg): 25% | ED50 [6]: 93.1 mg/kg | therapeutic ratio [6]: 42.9 | antipyretic effect ([11]; 150 mg/kg vs 300 mg/kg acetylsalicylic acid): considerably more effective than 300 mg/kg of acetylsalicylic acid | antipyretic effect (decreasing body temperature) ([11]; yeast fever, vs control substances): superiority of the Example 2 substance for decreasing body temperature; also recorded: stronger than that of comparable substances | 60 Minutes (paw edema) ([8]; 25.0 mg/kg): 36% | 120 Minutes (paw edema) ([8]; 25.0 mg/kg): 44% | 180 Minutes (paw edema) ([8]; 25.0 mg/kg): 50% | 60 Minutes (paw edema) ([8]; 50.0 mg/kg): 62% | 120 Minutes (paw edema) ([8]; 50.0 mg/kg): 40% | 180 Minutes (paw edema) ([8]; 50.0 mg/kg): 5% | Granulation Tissue % (Dry Weight) (Granulation Tissue; 2 × 75 mg/kg daily): 78% | Increase in Body Weight (Granulation Tissue; 2 × 75 mg/kg daily): not influenced
